Source: patent US10766903B2 (ALMAC DISCOVERY LIMITED, priority 2016, dated 2020)

These compounds were tested against USP7 (Homo sapiens (Human), UniProt Q93009) (assay: USP7 fluorescence polarisation (FP) biochemical assay, ubiquitin-Lys-TAMRA substrate). Conditions: Table 4, biochemical assay; average of at least duplicate experiments; read-out: USP7 IC50.
Procedure, shortened: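 Full-length His6-USP7 (2.5 nM) incubated ± inhibitor (8-point dilutions, 200 to 0.1 μM before addition) in 50 mM HEPES pH 7.2, 150 mM NaCl, 0.5 mM EDTA, 5 mM DTT, 0.05% BSA, 0.05% CHAPS. Ubiquitin-Lys-TAMRA cleavage followed by FP (ex 530/em 575 nm) every 15 min for 1.5 h; normalised to no-compound control.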

Chain of USP7 (Q93009 whole entry): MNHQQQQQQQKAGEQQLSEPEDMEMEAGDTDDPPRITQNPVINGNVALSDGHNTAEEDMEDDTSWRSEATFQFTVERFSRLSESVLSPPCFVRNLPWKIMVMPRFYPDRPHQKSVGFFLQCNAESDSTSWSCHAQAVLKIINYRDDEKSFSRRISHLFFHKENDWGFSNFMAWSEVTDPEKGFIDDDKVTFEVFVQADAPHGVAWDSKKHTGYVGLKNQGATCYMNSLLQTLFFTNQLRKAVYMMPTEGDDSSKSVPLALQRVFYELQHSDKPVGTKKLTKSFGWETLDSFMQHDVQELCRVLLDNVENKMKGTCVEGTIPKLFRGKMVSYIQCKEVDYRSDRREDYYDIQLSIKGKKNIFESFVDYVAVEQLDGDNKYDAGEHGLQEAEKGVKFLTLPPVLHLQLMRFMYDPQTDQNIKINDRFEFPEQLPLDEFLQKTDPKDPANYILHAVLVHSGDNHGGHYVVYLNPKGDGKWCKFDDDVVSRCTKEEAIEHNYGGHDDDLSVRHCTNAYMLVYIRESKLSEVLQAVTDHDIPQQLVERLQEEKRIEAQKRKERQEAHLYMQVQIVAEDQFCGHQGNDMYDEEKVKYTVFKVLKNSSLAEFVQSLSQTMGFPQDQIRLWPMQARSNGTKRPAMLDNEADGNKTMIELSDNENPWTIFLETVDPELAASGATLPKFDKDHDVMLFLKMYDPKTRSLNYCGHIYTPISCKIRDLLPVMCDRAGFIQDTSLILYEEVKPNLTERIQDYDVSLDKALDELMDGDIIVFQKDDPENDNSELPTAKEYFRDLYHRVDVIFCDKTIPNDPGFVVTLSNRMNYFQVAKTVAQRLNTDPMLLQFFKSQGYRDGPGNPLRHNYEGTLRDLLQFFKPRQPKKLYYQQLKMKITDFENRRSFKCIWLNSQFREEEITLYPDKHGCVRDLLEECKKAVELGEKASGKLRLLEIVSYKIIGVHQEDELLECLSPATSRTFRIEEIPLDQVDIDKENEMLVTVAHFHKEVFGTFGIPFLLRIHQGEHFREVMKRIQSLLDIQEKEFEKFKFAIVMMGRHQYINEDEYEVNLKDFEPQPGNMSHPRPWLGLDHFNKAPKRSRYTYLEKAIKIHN

IC50	SMILES
1 to 200 µM	CN(C)CC#Cc1c2ncn(CC3(O)CCN(C(=O)C[C@H](c4ccccc4)C(F)(F)F)CC3)c(=O)c2nn1C [Example 135, (R)-3-(3-(Dimethylamino)prop-1-yn-1-yl)-6-((4-hydroxy-1-(4,4,4-trifluoro-3-phenylbutanoyl)piperidin-4-yl)methyl)-2-methyl-2H-pyrazolo[4,3-d]pyrimidin-7(6H)-one]
< 0.25 µM	Cn1nc2c(=O)n(CC3(O)CCN(C(=O)C[C@H](c4ccccc4)C(F)(F)F)CC3)cnc2c1-c1ccc(CN2CCOCC2)cc1 [Example 137, (R)-6-((4-Hydroxy-1-(4,4,4-trifluoro-3-phenylbutanoyl)piperidin-4-yl)methyl)-2-methyl-3-(4-(morpholinomethyl)phenyl)-2H-pyrazolo[4,3-d]pyrimidin-7(6H)-one]
0.25 to 0.999 µM	Cn1nc2c(=O)n(CC3(O)CCN(C(=O)CCC4CCC4)CC3)cnc2c1-c1ccc(CN)cc1 [Example 138, 3-(4-(Aminomethyl)phenyl)-6-((1-(3-cyclobutylpropanoyl)-4-hydroxypiperidin-4-yl)methyl)-2-methyl-2H-pyrazolo[4,3-d]pyrimidin-7(6H)-one]
< 0.25 µM	C[C@H](CC(=O)N1CCC(O)(Cn2cnc3c(-c4ccccc4)cnn3c2=O)CC1)c1ccccc1 [Example 139, (R)-3-((4-Hydroxy-1-(3-phenylbutanoyl)piperidin-4-yl)methyl)-8-phenylpyrazolo[1,5-a][1,3,5]triazin-4(3H)-one]
1 to 200 µM	C[C@H](CC(=O)N1CCC(O)(Cn2cnc(N3CCC[C@@H]3CO)cc2=O)CC1)c1ccccc1 [Example 140, 3-((4-hydroxy-1-((R)-3-phenylbutanoyl)piperidin-4-yl)methyl)-6-((R)-2-(hydroxymethyl)pyrrolidin-1-yl)pyrimidin-4(3H)-one]
1 to 200 µM	COCC1CN(c2cc(=O)n(CC3(O)CCN(C(=O)C[C@@H](C)c4ccccc4)CC3)cn2)C1 [Example 141, (R)-3-((4-hydroxy-1-(3-phenylbutanoyl)piperidin-4-yl)methyl)-6-(3-(methoxymethyl)azetidin-1-yl)pyrimidin-4(3H)-one]
1 to 200 µM	CC(=O)NCCNc1cc(=O)n(CC2(O)CCN(C(=O)C[C@@H](C)c3ccccc3)CC2)cn1 [Example 143, (R)-N-(2-((1-((4-hydroxy-1-(3-phenylbutanoyl)piperidin-4-yl)methyl)-6-oxo-1,6-dihydropyrimidin-4-yl)amino)ethyl)acetamide]
1 to 200 µM	C[C@H](CC(=O)N1CCC(O)(Cn2cnc(N3CCC(O)CC3)cc2=O)CC1)c1ccccc1 [Example 144, (R)-3-((4-hydroxy-1-(3-phenylbutanoyl)piperidin-4-yl)methyl)-6-(4-hydroxypiperidin-1-yl)pyrimidin-4(3H)-one]
1 to 200 µM	C[C@H](CC(=O)N1CCC(O)(Cn2cnc(NCCNc3nccc(C(F)(F)F)n3)cc2=O)CC1)c1ccccc1 [Example 145, (R)-3-((4-hydroxy-1-(3-phenylbutanoyl)piperidin-4-yl)methyl)-6-((2-((4-(trifluoromethyl)pyrimidin-2-yl)amino)ethyl)amino)pyrimidin-4(3H)-one]
1 to 200 µM	C[C@H](CC(=O)N1CCC(O)(Cn2cnc(NCCNc3ccccc3)cc2=O)CC1)c1ccccc1 [Example 146, (R)-3-((4-hydroxy-1-(3-phenylbutanoyl)piperidin-4-yl)methyl)-6-((2-(phenylamino)ethyl)amino)pyrimidin-4(3H)-one]
1 to 200 µM	C[C@H](CC(=O)N1CCC(O)(Cn2cnc(N3CCCC3CNC(=O)OC(C)(C)C)cc2=O)CC1)c1ccccc1 (stereo partly drawn) [Example 147, tert-butyl ((1-(1-((4-hydroxy-1-((R)-3-phenylbutanoyl)piperidin-4-yl)methyl)-6-oxo-1,6-dihydropyrimidin-4-yl)pyrrolidin-2-yl)methyl)carbamate]
1 to 200 µM	C[C@H](CC(=O)N1CCC(O)(Cn2cnc(N3CCOC(C)(C(=O)N(C)C)C3)cc2=O)CC1)c1ccccc1 (stereo partly drawn) [Example 148, 4-(1-((4-hydroxy-1-((R)-3-phenylbutanoyl)piperidin-4-yl)methyl)-6-oxo-1,6-dihydropyrimidin-4-yl)-N,N,2-trimethylmorpholine-2-carboxamide]
1 to 200 µM	C[C@H](CC(=O)N1CCC(O)(Cn2cnc(N3CCC(N4CCOCC4)C3)cc2=O)CC1)c1ccccc1 (stereo partly drawn) [Example 149, 3-((4-hydroxy-1-((R)-3-phenylbutanoyl)piperidin-4-yl)methyl)-6-(3-morpholinopyrrolidin-1-yl)pyrimidin-4(3H)-one]
1 to 200 µM	C[C@H](CC(=O)N1CCC(O)(Cn2cnc(N3CCC(C)(O)C3)cc2=O)CC1)c1ccccc1 (stereo partly drawn) [Example 150, 3-((4-hydroxy-1-((R)-3-phenylbutanoyl)piperidin-4-yl)methyl)-6-(3-hydroxy-3-methylpyrrolidin-1-yl)pyrimidin-4(3H)-one]
1 to 200 µM	C[C@H](CC(=O)N1CCC(O)(Cn2cnc(NC3CCOC3)cc2=O)CC1)c1ccccc1 (stereo partly drawn) [Example 151, 3-((4-hydroxy-1-((R)-3-phenylbutanoyl)piperidin-4-yl)methyl)-6-((tetrahydrofuran-3-yl)amino)pyrimidin-4(3H)-one]
1 to 200 µM	C[C@H](CC(=O)N1CCC(O)(Cn2cnc(N3CCC4(CCOC4)C3)cc2=O)CC1)c1ccccc1 (stereo partly drawn) [Example 152, 3-((4-hydroxy-1-((R)-3-phenylbutanoyl)piperidin-4-yl)methyl)-6-(2-oxa-7-azaspiro[4.4]nonan-7-yl)pyrimidin-4(3H)-one]
1 to 200 µM	C[C@H](CC(=O)N1CCC(O)(Cn2cnc(N3CC4CCOC4C3)cc2=O)CC1)c1ccccc1 (stereo partly drawn) [Example 153, 3-((4-hydroxy-1-((R)-3-phenylbutanoyl)piperidin-4-yl)methyl)-6-(tetrahydro-2H-furo[2,3-c]pyrrol-5(3H)-yl)pyrimidin-4(3H)-one]
1 to 200 µM	C[C@H](CC(=O)N1CCC(O)(Cn2cnc(NCc3ccnn3C)cc2=O)CC1)c1ccccc1 [Example 154, (R)-3-((4-hydroxy-1-(3-phenylbutanoyl)piperidin-4-yl)methyl)-6-(((1-methyl-1H-pyrazol-5-yl)methyl)amino)pyrimidin-4(3H)-one]
1 to 200 µM	C[C@H](CC(=O)N1CCC(O)(Cn2cnc(NC3(C)COC3)cc2=O)CC1)c1ccccc1 [Example 155, (R)-3-((4-hydroxy-1-(3-phenylbutanoyl)piperidin-4-yl)methyl)-6-((3-methyloxetan-3-yl)amino)pyrimidin-4(3H)-one]
1 to 200 µM	C[C@H](CC(=O)N1CCC(O)(Cn2cnc(N3CCC(c4ccn[nH]4)CC3)cc2=O)CC1)c1ccccc1 [Example 156, (R)-6-(4-(1H-pyrazol-5-yl)piperidin-1-yl)-3-((4-hydroxy-1-(3-phenylbutanoyl)piperidin-4-yl)methyl)pyrimidin-4(3H)-one]

Same assay, conditions: USP7 IC50, Table 4, biochemical assay; average of at least duplicate experiments

IC50	SMILES
0.25 to 0.999 µM	Cn1nc2c(=O)n(CC3(O)CCN(C(=O)C[C@H](c4ccccc4)C(F)(F)F)CC3)cnc2c1C1CCCCC1 [Example 136, (R)-3-Cyclohexyl-6-((4-hydroxy-1-(4,4,4-trifluoro-3-phenylbutanoyl)piperidin-4-yl)methyl)-2-methyl-2H-pyrazolo[4,3-d]pyrimidin-7(6H)-one]
0.25 to 0.999 µM	CC(C)NCCNc1cc(=O)n(CC2(O)CCN(C(=O)C[C@@H](C)c3ccccc3)CC2)cn1 [Example 142, (R)-3-((4-hydroxy-1-(3-phenylbutanoyl)piperidin-4-yl)methyl)-6-((2-(isopropylamino)ethyl)amino)pyrimidin-4(3H)-one]
